Source: patent US11696913B2, “Prolonged ectoparasite-controlling agent for animal” (MITSUI CHEMICALS AGRO, INC., priority 2017, dated 2023)

Key:
[1] = test system: Rhipicephalus sanguineus; experiment: In vitro contact test with adult hard ticks (Rhipicephalus sanguineus); details: read-out: acaricidal activity; for pest or weed control at 0.2 µg/cm2, 0.2 µg/cm2: dose 0.2 μg/cm^2, 48 h; for pest or weed control at 1 µg/cm2, 1 µg/cm2: dose 1 μg/cm^2, 48 h; for pest or weed control at 0.04 µg/cm2, 0.04 µg/cm2: dose 0.04 μg/cm^2, 48 h
Procedure: (§1) In Vitro Contact Tests with Adult Hard Ticks
(§2) In vitro contact tests with ticks were conducted with adult males and females of Rhipicephalus sanguineus, Ixodes ricinus, or Dermacentor variabilis, or nymphs of Amblyomma americanum.
(§3) For the coating of the test vials, the test substance was dissolved and diluted in acetone p.a. to the desired concentration. The solution was then homogeneously applied to the inner wall and base of a glass vial by turning and rocking on an orbital shaker until complete evaporation of the solvent. For example, with a 900 ppm solution of test substance, an area-based dose of 5 μg/cm^2 was achieved.
(§4) After the solvent was completely evaporated, 5-10 adult ticks were put in each coated test vial, which was then sealed with a perforated plastic lid and incubated in a horizontal position in the dark at room temperature and ambient humidity (Rhipicephalus sanguineus) or in a climate-controlled cabinet (Ixodes ricinus, Dermacentor variabilis, Amblyomma americanum [21° C., 85% rel. hum.]). Acaricidal activity against the respective tick species was determined after 48 h. For this, ticks were collected to the base of the test vial by gentle knocking, and test vials were then incubated on a hotplate at 45-50° C. for no longer than 5 min. Ticks which remained motionless on the base of the test vial or moved uncoordinated without deliberately climbing up to avoid the heat were considered dead or moribund, respectively.
(§5) A substance was judged to have good acaricidal activity against the respective tick species when at least 80% of ticks were found dead or moribund at a dose of the substance of g/cm^2. An acaricidal activity of 100% means all ticks were dead or moribund. An acaricidal activity of 0% means none of the ticks was found dead or moribund.

[2] = test system: Ctenocephalides felis; experiment: In vitro contact test with fleas; details: read-out: insecticidal activity; for pest or weed control at 0.2 µg/cm2, 0.2 µg/cm2: dose 0.2 μg/cm^2, dead or moribund fleas after 48 h; for pest or weed control at 1 µg/cm2, 1 µg/cm2: dose 1 μg/cm^2, dead or moribund fleas after 48 h; for pest or weed control at 0.04 µg/cm2, 0.04 µg/cm2: dose 0.04 μg/cm^2, dead or moribund fleas after 48 h
Procedure: In Vitro Contact Tests with Fleas
In vitro contact tests with fleas were conducted with adult male and female cat fleas (Ctenocephalides felis).
as §3, with “To coat” for “For the coating of”, “tubes,” for “vials,”, “tube” for “vial”
Upon complete evaporation of the solvent, 5-10 adult cat fleas (Ctenocephalides felis) were added to each coated tube, which was then sealed with a perforated plastic lid and incubated in a horizontal position at room temperature and ambient humidity. After 48 h, insecticidal activity against fleas was determined. For this, fleas were collected to the base of the tube by knocking the tube, and the tube was allowed to stand upright. Fleas which remained motionless at the base or moved in an uncoordinated manner were considered dead or moribund, respectively.
A substance was judged to have good insecticidal activity against Ctenocephalides felis when at least 80% of the fleas were found dead or moribund at a dose of the substance of μg/cm^2. 100% insecticidal activity means that all the fleas were found dead or moribund. 0% insecticidal activity means that no fleas were found dead or moribund.

[3] = test system: Amblyomma americanum; experiment: In vitro contact test with hard ticks (Amblyomma americanum nymphs); details: read-out: acaricidal activity; for pest or weed control at 1 µg/cm2, 1 µg/cm2: dose 1 μg/cm^2, 48 h; for pest or weed control at 0.2 µg/cm2, 0.2 µg/cm2: dose 0.2 μg/cm^2, 48 h
Procedure: as §1, §2, §3, §4, §5

[4] = test system: Rhipicephalus (Boophilus) microplus; experiment: In vitro injection test with Rhipicephalus (Boophilus) microplus (BOOPMI Inj); details: 168 h, laid fertile eggs after 7 days, read-out: acaricidal activity; for pest or weed control at 0.00016 mg: dose 0.16 μg/animal injected; for pest or weed control at 0.0008 mg: dose 0.8 μg/animal injected; for pest or weed control at 6.4 ng: dose 0.0064 μg/animal injected; for pest or weed control at 32 ng: dose 0.032 μg/animal injected
Procedure: In Vitro Injection Test with Rhipicephalus (Boophilus) Microplus (BOOPMI Inj)
To produce an appropriate mixture for injection, the test substance was dissolved and diluted in dimethyl sulphoxide to the desired concentration. 1 μl of the test mixture was injected into the abdomen of each of 5 engorged adult female cattle ticks (Rhipicephalus (Boophilus) microplus). The ticks were transferred into petri dishes and maintained in a climate-controlled room [28° C., 85% rel. hum.].
Acaricidal activity against cattle ticks was assessed after 7 days by assessment of laid fertile eggs. […] An acaricidal activity of 100% means that none of the ticks laid eggs or laid eggs were infertile; 0% means that the ticks laid eggs, and all the eggs were fertile.

[5] = test system: Ctenocephalides felis; experiment: Ctenocephalides felis in-vitro feeding test with fleas (CTECFE oral); details: 48 hours, read-out: insecticidal feeding activity; for pest or weed control at 0.8 ppm: dose 0.8 ppm in citrated cattle blood; for pest or weed control at 4 ppm: dose 4 ppm in citrated cattle blood; for pest or weed control at 0.0064 ppm: dose 0.0064 ppm in citrated cattle blood; for pest or weed control at 0.032 ppm: dose 0.032 ppm in citrated cattle blood; for pest or weed control at 0.16 ppm: dose 0.16 ppm in citrated cattle blood
Procedure: Ctenocephalides felis In-Vitro Feeding Test with Fleas (CTECFE Oral)
To prepare a test blood mixture for feeding fleas, the test substance was dissolved in dimethyl sulphoxide and diluted with citrated cattle blood to the desired concentration.
To assemble the test set-up, about 20 unfed adult male and female cat fleas
(Ctenocephalides felis) were placed in a chamber which was closed at the top and bottom with gauze. A metal cylinder was sealed at one end with parafilm membrane, placed with the sealed base onto the chamber, and filled with the test blood mixture, which could be imbibed by the fleas through the parafilm membrane. The assembled test set-up was maintained at about 37° C. After 48 hours, the insecticidal feeding activity against fleas was determined. 100% means that all of the fleas were killed; 0% means that none of the fleas was killed.

[6] = test system: Dermacentor variabilis; experiment: In vitro contact test with adult hard ticks (Dermacentor variabilis); details: read-out: acaricidal activity; for pest or weed control at 0.2 µg/cm2, 0.2 µg/cm2: dose 0.2 μg/cm^2, 48 h; for pest or weed control at 1 µg/cm2, 1 µg/cm2: dose 1 μg/cm^2, 48 h
Procedure: as §1, §2, §3, §4, §5

[7] = test system: Ixodes ricinus; experiment: In vitro contact test with adult hard ticks (Ixodes ricinus); details: read-out: acaricidal activity; for pest or weed control at 0.2 µg/cm2, 0.2 µg/cm2: dose 0.2 μg/cm^2, 48 h; for pest or weed control at 1 µg/cm2, 1 µg/cm2: dose 1 μg/cm^2, 48 h; for pest or weed control at 5 µg/cm2, 5 µg/cm2: dose 5 μg/cm^2, 48 h
Procedure: as §1, §2, §3, §4, §5

Row | Structure (SMILES) | pest or weed control at 0.2 µg/cm2, 0.2 µg/cm2 [1] [%] | pest or weed control at 0.2 µg/cm2, 0.2 µg/cm2 [2] [%] | pest or weed control at 1 µg/cm2, 1 µg/cm2 [2] [%] | pest or weed control at 1 µg/cm2, 1 µg/cm2 [3] [%] | pest or weed control at 0.00016 mg [4] [%] | pest or weed control at 0.0008 mg [4] [%] | pest or weed control at 0.8 ppm [5] [%] | pest or weed control at 4 ppm [5] [%] | pest or weed control at 0.2 µg/cm2, 0.2 µg/cm2 [6] [%] | pest or weed control at 1 µg/cm2, 1 µg/cm2 [6] [%] | pest or weed control at 0.2 µg/cm2, 0.2 µg/cm2 [7] [%] | pest or weed control at 1 µg/cm2, 1 µg/cm2 [7] [%] | pest or weed control at 5 µg/cm2, 5 µg/cm2 [7] [%] | pest or weed control at 1 µg/cm2, 1 µg/cm2 [1] [%] | pest or weed control at 0.2 µg/cm2, 0.2 µg/cm2 [3] [%] | pest or weed control at 6.4 ng [4] [%] | pest or weed control at 32 ng [4] [%] | pest or weed control at 0.032 ppm [5] [%] | pest or weed control at 0.16 ppm [5] [%] | pest or weed control at 0.04 µg/cm2, 0.04 µg/cm2 [1] [%] | further results
1 | N#Cc1ccc(C(=O)Nc2cccc(C(=O)Nc3c(Br)cc(C(F)(C(F)(F)F)C(F)(F)F)cc3OC(F)(F)F)c2)cc1 [Compound 9] | 90 | 95 | 95 | 90 | 100 | 100 | 95 | 95 | 90 | 90 | 90 | 90 | 90 | – | – | – | – | – | – | – | –
2 | N#Cc1ccc(C(=O)Nc2cccc(C(=O)Nc3c(I)cc(C(F)(C(F)(F)F)C(F)(F)C(F)(F)F)cc3C(F)(F)F)c2F)cc1 (stereo not drawn) [Compound 34] | 90 | 95 | 95 | 90 | 100 | 100 | 95 | 95 | 90 | 90 | – | 90 | 90 | 90 | 90 | 100 | 100 | 95 | 95 | – | pest or weed control at 0.0064 ppm [5]: 95%; pest or weed control at 0.04 µg/cm2, 0.04 µg/cm2 ([6]; dose 0.04 μg/cm^2, 48 h): 90%
3 | CN(C(=O)c1ccc(F)cc1)c1cccc(C(=O)Nc2c(Br)cc(C(F)(C(F)(F)F)C(F)(F)F)cc2C(F)(F)F)c1F [Compound 26] | – | 95 | 95 | 90 | 100 | 100 | 95 | 95 | 90 | 90 | – | 90 | 90 | 90 | 90 | – | 100 | – | – | – | pest or weed control at 0.04 µg/cm2, 0.04 µg/cm2 [2]: 95%
4 | O=C(Nc1cccc(C(=O)Nc2c(I)cc(C(F)(C(F)(F)F)C(F)(F)C(F)(F)F)cc2C(F)(F)F)c1F)c1ccc(F)cc1 (stereo not drawn) [Compound 35] | 90 | 95 | 95 | 90 | 100 | 100 | 95 | 95 | 90 | 90 | 90 | 90 | 90 | 90 | 90 | 100 | 100 | 95 | 95 | 90 | pest or weed control at 0.04 µg/cm2, 0.04 µg/cm2 ([3]; dose 0.04 μg/cm^2, 48 h): 90%
5 | N#Cc1ccc(C(=O)Nc2cccc(C(=O)Nc3c(Br)cc(C(F)(C(F)(F)F)C(F)(F)F)cc3C(F)(F)F)c2F)cc1 [Compound 16] | 90 | 95 | 95 | 90 | 100 | 100 | 95 | 95 | 90 | 90 | 90 | 90 | 90 | 90 | 90 | – | – | 95 | 95 | 90 | pest or weed control at 0.04 µg/cm2, 0.04 µg/cm2 [2]: 95%; pest or weed control at 0.0064 ppm [5]: 95%
6 | N#Cc1ccc(C(=O)Nc2cccc(C(=O)Nc3c(Br)cc(C(F)(C(F)(F)F)C(F)(F)F)cc3OC(F)(F)F)c2F)cc1 [Compound 13] | 90 | 95 | 95 | 90 | 100 | 100 | 95 | 95 | 90 | 90 | 90 | 90 | 90 | 90 | 90 | – | 100 | 95 | 95 | 90 | –
